From ChEMBL document CHEMBL3046206, “Synthesis of new 4-(2,5-dimethylpyrrol-1-yl)/4-pyrrol-1-yl benzoic acid hydrazide analogs and some derived oxadiazole, triazole and pyrrole ring systems: a novel class of potential antibacterial, antifungal and antitubercular agents” (Med Chem Res, 2013)
Values after ≈ are worked out from the molar mass of the structure shown.

Columns and labels:
Candida tropicalis = assay: Antifungal activity against Candida tropicalis after 18 hr by broth microdilution technique; type: functional
Bacillus subtilis = assay: Antibacterial activity against Bacillus subtilis after 18 hr by broth microdilution technique; type: functional
Escherichia coli = assay: Antibacterial activity against Escherichia coli after 18 hr by broth microdilution technique; type: functional
[1] = tested on: Mycobacterium tuberculosis; assay: Antimycobacterial activity against Mycobacterium tuberculosis H37Rv after 21 days by broth dilution method; type: functional; settings: 504 h
Klebsiella pneumoniae = assay: Antibacterial activity against Klebsiella pneumoniae after 18 hr by broth microdilution technique; type: functional
Pseudomonas aeruginosa = assay: Antibacterial activity against Pseudomonas aeruginosa after 18 hr by broth microdilution technique; type: functional
Saccharomyces cerevisiae = assay: Antifungal activity against Saccharomyces cerevisiae after 18 hr by broth microdilution technique; type: functional
Aspergillus niger = assay: Antifungal activity against Aspergillus niger after 18 hr by broth microdilution technique; type: functional
Enterococcus faecalis = assay: Antibacterial activity against Enterococcus faecalis after 18 hr by broth microdilution technique; type: functional
Staphylococcus aureus = assay: Antibacterial activity against Staphylococcus aureus after 18 hr by broth microdilution technique; type: functional
A549 = assay: Cytotoxicity against Homo sapiens (human) A549 cells after 72 hr by MTT assay; type: cell-based; settings: A549, 72 h
Vero = assay: Cytotoxicity against Chlorocebus aethiops (African green monkey) Vero cells after 72 hr by MTT assay; type: cell-based; settings: Chlorocebus sabaeus

SMILES	MIC (Candida tropicalis) [µg/mL]	MIC (Bacillus subtilis) [µg/mL]	MIC (Escherichia coli) [µg/mL]	MIC [1] [µg/mL]	MIC (Klebsiella pneumoniae) [µg/mL]	MIC (Pseudomonas aeruginosa) [µg/mL]	MIC (Saccharomyces cerevisiae) [µg/mL]	MIC (Aspergillus niger) [µg/mL]	MIC (Enterococcus faecalis) [µg/mL]	MIC (Staphylococcus aureus) [µg/mL]	IC50 (A549) [µM]	IC50 (Vero) [µM]
Cc1ccc(C)n1-c1ccc(C(=O)NN)cc1	62.5 (≈ 273 µM)	62.5 (≈ 273 µM)	500 (≈ 2180 µM)	62.5 (≈ 273 µM)	62.5 (≈ 273 µM)	500 (≈ 2180 µM)	62.5 (≈ 273 µM)	62.5 (≈ 273 µM)	62.5 (≈ 273 µM)	62.5 (≈ 273 µM)	–	–
O=C(NNC(=O)c1ccc(F)c(C(F)(F)F)c1)c1ccc(-n2cccc2)cc1	4 (≈ 10.2 µM)	16 (≈ 40.9 µM)	8 (≈ 20.4 µM)	8 (≈ 20.4 µM)	> 500	8 (≈ 20.4 µM)	16 (≈ 40.9 µM)	8 (≈ 20.4 µM)	31.2 (≈ 79.9 µM)	62.5 (≈ 160 µM)	200	196
c1ccc(-c2nnc(-c3ccc(-n4cccc4)cc3)o2)cc1	31.2 (≈ 109 µM)	8 (≈ 27.8 µM)	8 (≈ 27.8 µM)	8 (≈ 27.8 µM)	> 500	8 (≈ 27.8 µM)	31.2 (≈ 109 µM)	31.2 (≈ 109 µM)	31.2 (≈ 109 µM)	31.2 (≈ 109 µM)	256	250
Brc1ccccc1-c1nnc(-c2ccc(-n3cccc3)cc2)o1	4 (≈ 10.9 µM)	8 (≈ 21.8 µM)	8 (≈ 21.8 µM)	8 (≈ 21.8 µM)	> 500	8 (≈ 21.8 µM)	31.2 (≈ 85.3 µM)	16 (≈ 43.7 µM)	31.2 (≈ 85.3 µM)	31.2 (≈ 85.3 µM)	252	258
Brc1ccc(-c2nnc(-c3ccc(-n4cccc4)cc3)o2)cc1	4 (≈ 10.9 µM)	4 (≈ 10.9 µM)	4 (≈ 10.9 µM)	2 (≈ 5.46 µM)	> 500	8 (≈ 21.8 µM)	31.2 (≈ 85.3 µM)	8 (≈ 21.8 µM)	16 (≈ 43.7 µM)	31.2 (≈ 85.3 µM)	264	260
O=[N+]([O-])c1ccccc1-c1nnc(-c2ccc(-n3cccc3)cc2)o1	31.2 (≈ 94 µM)	4 (≈ 12 µM)	4 (≈ 12 µM)	2 (≈ 6.02 µM)	> 500	4 (≈ 12 µM)	31.2 (≈ 94 µM)	31.2 (≈ 94 µM)	16 (≈ 48.1 µM)	31.2 (≈ 94 µM)	267	266
O=[N+]([O-])c1cccc(-c2nnc(-c3ccc(-n4cccc4)cc3)o2)c1	31.2 (≈ 94 µM)	8 (≈ 24.1 µM)	8 (≈ 24.1 µM)	8 (≈ 24.1 µM)	> 500	8 (≈ 24.1 µM)	31.2 (≈ 94 µM)	31.2 (≈ 94 µM)	31.2 (≈ 94 µM)	31.2 (≈ 94 µM)	256	251
O=[N+]([O-])c1ccc(-c2nnc(-c3ccc(-n4cccc4)cc3)o2)cc1	31.2 (≈ 94 µM)	4 (≈ 12 µM)	4 (≈ 12 µM)	2 (≈ 6.02 µM)	> 500	4 (≈ 12 µM)	31.2 (≈ 94 µM)	31.2 (≈ 94 µM)	16 (≈ 48.1 µM)	31.2 (≈ 94 µM)	258	258
Clc1ccc(-c2nnc(-c3ccc(-n4cccc4)cc3)o2)cc1	4 (≈ 12.4 µM)	4 (≈ 12.4 µM)	4 (≈ 12.4 µM)	2 (≈ 6.22 µM)	> 500	4 (≈ 12.4 µM)	8 (≈ 24.9 µM)	16 (≈ 49.7 µM)	16 (≈ 49.7 µM)	31.2 (≈ 97.1 µM)	256	253
Fc1ccc(-c2nnc(-c3ccc(-n4cccc4)cc3)o2)cc1C(F)(F)F	2 (≈ 5.36 µM)	1 (≈ 2.68 µM)	2 (≈ 5.36 µM)	1 (≈ 2.68 µM)	> 500	2 (≈ 5.36 µM)	4 (≈ 10.7 µM)	4 (≈ 10.7 µM)	8 (≈ 21.4 µM)	31.2 (≈ 83.7 µM)	270	268
Cc1ccc(C)n1-c1ccc(C(=O)N/N=C/c2ccc(O)cc2)cc1	16 (≈ 48 µM)	31.2 (≈ 93.7 µM)	500 (≈ 1500 µM)	31.2 (≈ 93.7 µM)	62.5 (≈ 187 µM)	500 (≈ 1500 µM)	16 (≈ 48 µM)	16 (≈ 48 µM)	16 (≈ 48 µM)	16 (≈ 48 µM)	–	–
Cc1ccc(C)n1-c1ccc(C(=O)N/N=C/c2ccc(N(C)C)cc2)cc1	31.2 (≈ 86.7 µM)	31.2 (≈ 86.7 µM)	500 (≈ 1390 µM)	31.2 (≈ 86.7 µM)	62.5 (≈ 173 µM)	500 (≈ 1390 µM)	31.2 (≈ 86.7 µM)	31.2 (≈ 86.7 µM)	31.2 (≈ 86.7 µM)	31.2 (≈ 86.7 µM)	–	–
O=C(NNC(=O)c1ccccc1[N+](=O)[O-])c1ccc(-n2cccc2)cc1	31.2 (≈ 89.2 µM)	16 (≈ 45.7 µM)	31.2 (≈ 89.2 µM)	8 (≈ 22.8 µM)	> 500	16 (≈ 45.7 µM)	31.2 (≈ 89.2 µM)	31.2 (≈ 89.2 µM)	31.2 (≈ 89.2 µM)	62.5 (≈ 178 µM)	205	182
O=C(NNC(=O)c1cccc([N+](=O)[O-])c1)c1ccc(-n2cccc2)cc1	31.2 (≈ 89.2 µM)	16 (≈ 45.7 µM)	16 (≈ 45.7 µM)	8 (≈ 22.8 µM)	> 500	16 (≈ 45.7 µM)	31.2 (≈ 89.2 µM)	31.2 (≈ 89.2 µM)	62.5 (≈ 178 µM)	62.5 (≈ 178 µM)	203	195
O=C(NNC(=O)c1ccc([N+](=O)[O-])cc1)c1ccc(-n2cccc2)cc1	31.2 (≈ 89.2 µM)	16 (≈ 45.7 µM)	16 (≈ 45.7 µM)	8 (≈ 22.8 µM)	> 500	16 (≈ 45.7 µM)	31.2 (≈ 89.2 µM)	31.2 (≈ 89.2 µM)	31.2 (≈ 89.2 µM)	62.5 (≈ 178 µM)	198	190
